The values below come from patent US7718705B1, “Methods of using rapid-onset selective serotonin reuptake inhibitors for treating sexual dysfunction” (Eli Lilly and Company, priority 2000, dated 2010).

Data set [1] in a line: Plasma concentration profile in volunteers (FIG. 1). It is filed as in vivo, human. The note with it: 20 volunteers, 40 mg dapoxetine at time zero of the 14th day of daily dosing.
In data set [2] the test system is men presenting with premature ejaculation (PE) as defined in the DSM IV. Put plainly: Ejaculatory latency (stopwatch, intromission to ejaculation) in randomized, double-blind, three way crossover evaluation of prn dapoxetine. The format is in vivo, human. The conditions noted are these: for Percentage of patients achieving increases of at least one minute in EL: placebo 14%; for Increase of mean ejaculatory latency from baseline: placebo group 24 seconds. As for the experimental part:
The results of an interim analysis of a randomized, double-blind, three way crossover evaluation of two prn doses of dapoxetine (20 mg and 40 mg) in the treatment of premature ejaculation (hereinafter referred to as “PE”) are disclosed in tables 8a and 8b. Each patient is assigned to receive 4 to 6 administrations of each of the 3 study doses, in a random order, over 3 periods of not more than 4 weeks each. The interim analysis of the data was conducted following completion of the first treatment period.
The study comprised 155 men, aged 19 to 60, presenting with PE as defined in the DSM IV. All patients were involved in a stable monogamous sexual relationship of at least 6 months duration and reported a history of intravaginal ejaculatory latency (hereinafter referred to as “EL”) of less than 2 minutes in greater than half of their intercourse experiences. History of significant cardiovascular disease or psychiatric disorder, uncontrolled hypertension, erectile dysfunction, and substance abuse were criteria for exclusion.
(§1) During a lead-in period (maximum of 4 weeks), patients were asked to record ejaculatory latency a minimum of 4 times. Latency is defined as the time span, as measured by the patient's partner via a stopwatch, from vaginal intromission to ejaculation. At the completion of the lead-in period, patients were randomized to treatment with either 20 mg or 40 mg dapoxetine or placebo. Study medication was to be ingested 1 to 3 hours prior to a planned intercourse event. The time study drug was taken and time of intercourse were recorded in an event log. Patients were instructed to attempt intercourse at least 4 times over the 4 week treatment period and were issued a sufficient supply of medication to complete 6 attempts at intercourse. The outcome of each attempt (success of intromission and EL) was recorded in the event log initialed by the patient and their partner. Patients returned to the study clinic for a follow-up visit after 4 to 6 attempts at intercourse were completed. At visits 4, 5, and 6 patients were asked to answer the Global Satisfaction Questions and to complete the PEQ.
Of the 155 patients randomized, 145 completed the treatment period. 54 patients were randomized to the placebo group, while 56 and 45 received 20 mg or 40 mg dapoxetine respectively. Although patients were randomly assigned to treatment sequences in blocks of 6, the imbalance in the number of patients randomized to each group was due to the random distribution of the 40 mg assignment to later allocations within the blocks. The intent-to-treat population was comprised of 143 patients, each of whom had baseline and follow-up data for analysis. Analysis of EL was conducted on the 138 patients who had latency data at baseline and at least one post-medication event. The percentage of patients with data sufficient for inclusion in the analysis of EL was lower in the 40 mg group than in either of the other 2 groups. This difference may be attributable to the smaller size of the 40 mg group, such that each patient represents a greater percentage of the whole, rather than being a function of the dose administered. […]

Data set [3] has the same test system. The data set can be described thus: Global Satisfaction Question in the crossover evaluation of prn dapoxetine. The format is in vivo, human.
Description: The patient-perceived-benefit of prn dosing method with dapoxetine, or a pharmaceutically acceptable salt thereof, can be determined, for example, through administration of a global satisfaction question, such as:
“How would you complete the following statement?
The new bottle of medication that I received at my previous visit made my premature ejaculation problem:
Measures for “ejaculatory latency” and “number of thrusts prior to ejaculation” should be recorded as the average of the 4-6 events recorded in the event logs for that treatment period. Subjects who ejaculated prior to intromission should have a zero recorded for both “ejaculatory latency” and “number of thrusts prior to ejaculation.” “Measures for Subject and Partner satisfaction scores (global impression)” and “Subject and Partner ejaculatory (or sexual) quality-of-life questionnaire” for each treatment period should be based on the score collected at the visit immediately following each treatment period.
as §1
The results of a final analysis of a randomized, double-blind, three way crossover evaluation of two prn doses of dapoxetine (20 mg and 40 mg) in the treatment of premature ejaculation are disclosed in the following tables. The final analyses of the data was conducted following completion of all 3 treatment periods.

For data set [4], the system named is patients (premature ejaculation). The conditions noted are these: fluoxetine continuous then prn dosing; cited from earlier work.
Data set [5] shares this test system. The note with it: cited from earlier work.
Data set [6] deals with patients suffering from premature ejaculation. The note with it: 26 patients, cited from earlier work.
Data set [7] deals with potent men with premature ejaculation. The note with it: 37 men, 50 mg oral sertraline; cited from earlier work.
Setting [8] is: final analysis, all patients, 20 mg prn.
Setting [9] is: final analysis, all patients, 40 mg prn.
Setting [10] is: patients with baseline less than one minute, 20 mg prn.
Where [11] appears, read: patients with baseline less than one minute, 40 mg prn.
The mark [12] stands for this setting: patients with baseline less than two minutes, 20 mg prn.
Where [13] appears, read: patients with baseline less than two minutes, 40 mg prn.
[14] abbreviates: patients with baseline ≧ one minute, 40 mg prn.
[15] abbreviates: patients with baseline ≧ two minutes, 40 mg prn.

Each structure is given as a SMILES string. Read-outs that look alike come from different tables or passages of the source.

`CN(C)[C@@H](CCOc1cccc2ccccc12)c1ccccc1` [Dapoxetine, (S)-(+)-N,N-Dimethyl-1-phenyl-3-(1-naphthalenyloxy)-propanamine]: the “Plasma concentration profile (in words)” value in data set [1] is listed as “rapid-onset to reach peak plasma concentration followed by rapid metabolism (i.e. short half-life)”. Further, the “Ejaculatory Latency (LS Mean)” value in data set [2] ("Moderate" patients, baseline 1.68, 20 mg prn) is 2.64 min; in data set [2] ("Moderate" patients, baseline 1.68, 40 mg prn), 2.93 min; in data set [2] ("Severe" patients, baseline 1.23, 20 mg prn), 2.60 min; in data set [2] ("Severe" patients, baseline 1.23, 40 mg prn), 3.09 min; in data set [2] (setting [8]), 2.78 min; in data set [2] (setting [9]), 3.19 min. In addition, the “Ejaculatory Latency (LS Mean)” value in data set [2] (final analysis, patients with baseline less than one minute, 20 mg prn) turned out to be 1.2 min; in data set [2] (final analysis, patients with baseline less than one minute, 40 mg prn), 1.7 min; in data set [2] (interim analysis, follow-up, 20 mg prn, adjusted for baseline and sample size), 2.41 min; in data set [2] (interim analysis, follow-up, 40 mg prn, adjusted for baseline and sample size), 2.52 min; in data set [2] (setting [12]), 2.4 min; in data set [2] (setting [13]), 2.5 min. In addition, the “Ejaculatory Latency (LS Mean)” value was 4.24 min in data set [2] (patients with baseline ≧ one minute, baseline 1.90, 40 mg prn); 6.59 min in data set [2] (patients with baseline ≧ two minutes, baseline 3.19, 40 mg prn); 2.37 ± 0.24 min in data set [2] (recorded after administration of a single dose, 20 mg); 1.98 ± 0.27 min in data set [2] (recorded after administration of a single dose, 40 mg). Besides, the “Change in Latency (LS Mean)” value in data set [2] ("Moderate" patients, 20 mg prn) stood at 0.94 min; in data set [2] ("Moderate" patients, 40 mg prn), 1.27 min; in data set [2] ("Severe" patients, 20 mg prn) it was 1.42 min; in data set [2] ("Severe" patients, 40 mg prn) it was 1.93 min; in data set [2] (setting [8]), 1.43 min; in data set [2] (setting [9]) it was 1.86 min. The “Change in Latency (LS Mean)” value in data set [2] (setting [10]) is 0.6 min; in data set [2] (setting [11]), 1.3 min; in data set [2] (setting [12]), 1.4 min; in data set [2] (setting [13]) it was 1.5 min; in data set [2] (setting [14]), 2.40 min; in data set [2] (setting [15]), 3.43 min. In data set [2] (first dose administered, no lead-in period (Table 12)), the “Treatment of premature ejaculation with the first dose (in words)” value was “can effectively and unexpectedly treat premature ejaculation with the first dose administered to a patient”. For the same compound, the “Ejaculatory latency, Mean ± S.D.” value in data set [2] (interim analysis, follow-up, first treatment period, 20 mg prn, 50 patients) is 2.3 ± 2.26 min; in data set [2] (interim analysis, follow-up, first treatment period, 40 mg prn, 37 patients), 2.3 ± 2.19 min; in data set [2] (interim analysis, follow-up, 20 & 40 mg combined, 87 patients), 2.3 ± 2.22 min. Further, the “Ejaculatory latency, Range” value is 0.1 to 11.4 min in data set [2] (interim analysis, follow-up, 20 mg prn); 0.0 to 9.8 min in data set [2] (interim analysis, follow-up, 40 mg prn); 0.0 to 11.4 min in data set [2] (interim analysis, follow-up, 20 & 40 mg combined). For the same compound, the “Percentage of patients achieving increases of at least one minute in EL” value is on record as 22% in data set [2] (interim analysis, 20 mg prn) and 24% in data set [2] (interim analysis, 40 mg prn). Besides, the “Increase of mean ejaculatory latency from baseline” value was “one” in data set [2] (interim analysis, 20 mg prn) and “one” in data set [2] (interim analysis, 40 mg prn). The “Global Satisfaction: Better/Much Better” value in data set [3] ("Moderate" patients, 20 mg prn) amounted to 34.4%; in data set [3] ("Moderate" patients, 40 mg prn), 50%; in data set [3] ("Severe" patients, 20 mg prn), 17.2%; in data set [3] ("Severe" patients, 40 mg prn), 25.5%; in data set [3] (setting [10]), 13%; in data set [3] (setting [11]), 24%. Moreover, the “Global Satisfaction: Better/Much Better” value in data set [3] (setting [12]) worked out at 23%; in data set [3] (setting [13]), 29%; in data set [3] (setting [14]), 36.4%; in data set [3] (setting [15]), 39.1%. The “Global Satisfaction: ≧Slightly Better” value turned out to be 51.6% in data set [3] ("Moderate" patients, 20 mg prn); 66.7% in data set [3] ("Moderate" patients, 40 mg prn); 48.5% in data set [3] ("Severe" patients, 20 mg prn); 54.1% in data set [3] ("Severe" patients, 40 mg prn); 38% in data set [3] (setting [10]); 46% in data set [3] (setting [11]). In addition, the “Global Satisfaction: ≧Slightly Better” value in data set [3] (setting [12]) is 50%; in data set [3] (setting [13]), 50%; in data set [3] (setting [14]) it was 65.0%; in data set [3] (setting [15]), 65.2%.
With `CNCCC(Oc1ccc(C(F)(F)F)cc1)c1ccccc1` (stereo not drawn) [fluoxetine], in data set [4], the “Patients initially improved with continuous dosing that lost benefit after switching to prn dosing” value is on record as 100%.
Consider `Fc1ccc([C@@H]2CCNC[C@H]2COc2ccc3c(c2)OCO3)cc1` [paroxetine], for which the “Patients with improved ejaculatory latency” value in data set [5] (20 mg prn paroxetine) is on record as 42%. The “Patients initially improved with continuous dosing that lost benefit after switching to prn dosing” value in data set [5] (paroxetine continuous then prn dosing) is on record as 37%. Besides, in data set [6] (prn 20 mg paroxetine tablet 3-4 hours prior to intercourse), the “Ejaculatory latency (in words)” value is listed as “statistically significant increase in ejaculatory latency in the second through fourth weeks of paroxetine treatment but not in the first week”. Also, the “Frequency of intercourse (in words)” value in data set [6] (prn 20 mg paroxetine) is given as “significantly increased only after 3 weeks of prn paroxetine therapy”.
Turning to `CN[C@H]1CC[C@@H](c2ccc(Cl)c(Cl)c2)c2ccccc21` [sertraline], the “Conclusion on treatment of premature ejaculation (in words)” value in data set [7] was “appeared to be a useful and well tolerated oral treatment for premature ejaculation after 1 to 2 weeks”.
